From patent publication US20020082270A1, “Aminoquinazolines which inhibit signal transduction mediated by tyrosine kinases” (priority 2000, published 2002)

Biological target: T1, human EGF-R (Homo sapiens, UniProt P00533)
T1 construct: expressed in transfected cells; host or cells: F/L-HERc cells: murine IL-3-dependent FDC-P1 cells transduced with retroviral vector LXSN carrying human EGF-R cDNA (packaging line GP+E86)
Experiment: Inhibition of EGF-dependent proliferation of F/L-HERc cells
Format: cell-based
Conditions: F/L-HERc cells (murine IL-3-dependent line expressing human EGF-R), stimulated with EGF 20 ng/ml, 48 hours, Cell Titer 96 AQueous assay
From the text: A cell line of murine origin dependent on interleukin-3-(IL-3) which was genetically modified to express functional human EGF-R was used here. The proliferation of these cells known as F/L-HERc can therefore be stimulated either by murine IL-3 or by EGF (cf. von Rüden, T. et al. in EMBO J. 7, 2749-2756 (1988) and Pierce, J. H. et al. in Science 239, 628-631 (1988)).
The starting material used for the F/L-HERc cells was the cell line FDC-P1, the production of which has been described by Dexter, T. M. et al. in J. Exp. Med. 152, 1036-1047 (1980). Alternatively, however, other growth-factor-dependent cells may also be used (cf. for example Pierce, J. H. et al. in Science 239, 628-631 (1988), Shibuya, H. et al. in Cell 70, 57-67 (1992) and Alexander, W. S. et al. in EMBO J. 10, 3683-3691 (1991)). […]
In order to determine the inhibitory activity of the compounds according to the invention the relative cell number was measured in O.D. units using the Cell Titer 96™ AQueous Non-Radioactive Cell Proliferation Assay (Promega). […]

T1 sequence (P00533 25-1210): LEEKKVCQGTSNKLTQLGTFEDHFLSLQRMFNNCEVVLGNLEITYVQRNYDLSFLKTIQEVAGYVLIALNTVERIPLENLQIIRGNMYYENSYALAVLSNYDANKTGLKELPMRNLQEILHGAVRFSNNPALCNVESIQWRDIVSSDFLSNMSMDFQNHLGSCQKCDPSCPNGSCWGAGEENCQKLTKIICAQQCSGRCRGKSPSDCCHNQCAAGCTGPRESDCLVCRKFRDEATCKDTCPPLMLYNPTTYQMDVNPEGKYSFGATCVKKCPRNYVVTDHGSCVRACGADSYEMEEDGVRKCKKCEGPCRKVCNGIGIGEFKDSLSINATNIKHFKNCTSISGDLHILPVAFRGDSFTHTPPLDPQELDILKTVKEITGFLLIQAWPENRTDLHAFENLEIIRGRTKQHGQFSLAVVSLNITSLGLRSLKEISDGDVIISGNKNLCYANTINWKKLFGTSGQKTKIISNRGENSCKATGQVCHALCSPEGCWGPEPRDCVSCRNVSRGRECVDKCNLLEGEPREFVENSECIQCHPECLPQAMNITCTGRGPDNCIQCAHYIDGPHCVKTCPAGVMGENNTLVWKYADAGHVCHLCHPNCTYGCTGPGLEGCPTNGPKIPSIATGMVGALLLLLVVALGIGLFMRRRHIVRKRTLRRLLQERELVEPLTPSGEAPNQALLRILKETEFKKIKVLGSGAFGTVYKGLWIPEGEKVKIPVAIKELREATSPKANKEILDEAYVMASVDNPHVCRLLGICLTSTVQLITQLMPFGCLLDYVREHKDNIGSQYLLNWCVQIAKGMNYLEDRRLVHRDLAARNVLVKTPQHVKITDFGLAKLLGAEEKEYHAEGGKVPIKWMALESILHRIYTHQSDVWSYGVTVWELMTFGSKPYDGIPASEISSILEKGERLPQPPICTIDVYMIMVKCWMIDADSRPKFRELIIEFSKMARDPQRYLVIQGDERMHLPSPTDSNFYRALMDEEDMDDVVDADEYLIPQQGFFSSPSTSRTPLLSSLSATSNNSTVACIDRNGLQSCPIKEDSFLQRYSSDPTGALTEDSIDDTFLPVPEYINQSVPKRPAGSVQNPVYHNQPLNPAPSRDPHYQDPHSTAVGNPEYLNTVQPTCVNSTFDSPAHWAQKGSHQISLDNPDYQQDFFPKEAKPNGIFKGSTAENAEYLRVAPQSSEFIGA

- IC50: 12 nM
Structure (SMILES): C=CC(=O)Nc1cc2c(N[C@H](C)c3ccccc3)ncnc2cc1OCCN1CCN(C2COC(=O)C2)CC1 (stereo partly drawn) [1 (2), 4-[(R)-(1-phenylethyl)amino]-7-{2-[4-(2-oxo-tetrahydrofuran-4-yl)-piperazin-1-yl]-ethoxy}-6-[(vinylcarbonyl)amino]-quinazoline]
